Details: for log10 BCF / log10 biotransformation half-life (days): fish

Row | Structure (SMILES) | melting point | boiling point | further results
1 | CN(C)C(=O)Nc1ccc(Cl)c(Cl)c1 | 158 °C | – | log10 Koc (L/kg): 2.4; log10 vapour pressure (mmHg): -7.16; ready biodegradability: not readily biodegradable; log10 BCF: 1.15; log10 biotransformation half-life (days): -1.45
2 | C=C1C2CCC(C2)C1(C)C (stereo not drawn) | 51.6 °C | 160 °C | log10 vapour pressure (mmHg): 0.399; ready biodegradability: not readily biodegradable; log10 BCF: 2.98; log10 biotransformation half-life (days): 0.96
3 | NC(=O)COc1ccccc1 | 102 °C | – | –
4 | COc1ccccc1CN | – | 229 °C | –
5 | COc1c(Cl)c(C)c2c(c1Cl)OC(=O)c1c(C)c(Cl)c(O)c(Cl)c1O2 | 232 °C | – | –
6 | Cc1cc(N)c(S(=O)(=O)O)cc1Cl | – | – | ready biodegradability: not readily biodegradable
7 | CCCCCCCCCCCCCCCCCCCCCCCCCCCCCCCC | 69.7 °C | 467 °C | log10 biodegradation half-life (days): 2.45; ready biodegradability: readily biodegradable
8 | FC(F)(F)c1cccc(Br)c1 | 1 °C | 152 °C | –
9 | N#Cc1cc(Cl)ccc1N | 97 °C | – | –
10 | c1ccc2cc3cc4ccccc4cc3cc2c1 | 357 °C | – | log10 Koc (L/kg): 5.81; log10 vapour pressure (mmHg): -8.6
11 | COc1ccnc2ccccc12 | 41 °C | 245 °C | –
12 | CCOCN(C(=O)CCl)c1c(C)cccc1CC | – | – | log10 Koc (L/kg): 2.32
13 | Brc1ccc(Sc2ccc(Br)cc2)cc1 | 115 °C | 268 °C | –
14 | C=CCCCCCCCCCCCC | -12 °C | 233 °C | log10 vapour pressure (mmHg): -1.82
15 | C=C1CC2CC1CC2(C)C (stereo not drawn) | – | 152 °C | –
16 | CCCCB(CCCC)CCCC | – | 209 °C | –
17 | O=C(Cl)C(c1ccccc1)c1ccccc1 | 56.5 °C | – | –
18 | Cc1cccc2ccoc12 | 109 °C | 190 °C | –
19 | O=C(O)c1c(F)c(F)c(F)c(F)c1F | 101 °C | 220 °C | –
20 | C1CSCCS1 | 112 °C | 200 °C | log10 vapour pressure (mmHg): -0.0969
21 | CCCCCCOC=O | -62.6 °C | 156 °C | –

Row | Structure (SMILES) | melting point | boiling point | further results
22 | OCC(F)(F)C(F)(F)C(F)(F)F | – | 95 °C | log10 vapour pressure (mmHg): 1.52
23 | ClC(Cl)C(Cl)(Cl)Cl | -29 °C | 160 °C | log10 vapour pressure (mmHg): 0.544
24 | ClCCCCBr | – | 175 °C | –
25 | CC(C)Oc1ccc(C(=O)NS(=O)(=O)c2ccc(N)cc2)cc1 | 172 °C | – | –
26 | CCCCCCCCCCCCCCCc1ccccc1 | 22 °C | 373 °C | log10 vapour pressure (mmHg): -5.14
27 | C=C1CCC1 | -135 °C | 42.2 °C | –
28 | Cc1ccco1 | -87.5 °C | 65 °C | log10 vapour pressure (mmHg): 2.19
29 | c1ccc(CSSCc2ccccc2)cc1 | 71.5 °C | – | –
30 | CC1OCCO1 | – | 81.5 °C | –
31 | C#C/C=C\C | – | 48.4 °C | –
32 | COS(=O)(=O)c1ccc(C)cc1 | 28.5 °C | 292 °C | –
33 | C=C(C)C(=O)OCCN(C)C | -30 °C | 186 °C | –
34 | CCOC(=O)Cn1c(=O)sc2cccc(Cl)c21 | 79.2 °C | – | log10 vapour pressure (mmHg): -5.56
35 | CC(C)OC(=O)C1(S(=O)(=O)c2ccc(Cl)cc2)CC1 | 89.8 °C | – | –
36 | CC12CCC(C(Br)C1=O)C2(C)C (stereo not drawn) | 76.5 °C | 274 °C | –
37 | CCCCCI | -85.6 °C | 155 °C | log10 Henry constant (atm·m³/mol): -1.71; log10 vapour pressure (mmHg): 0.642
38 | O=C(O)CCc1nc(-c2ccccc2)c(-c2ccccc2)o1 | 161 °C | – | –
39 | CC1=CCOCC1 | – | 118 °C | –
40 | Nc1ncnc(Nc2ccc(Cl)cc2)n1 | 234 °C | – | –
41 | CC(C)C=CCl | – | 87 °C | –
42 | OC(C(F)(F)F)(C(F)(F)F)C(F)(F)F | – | 45 °C | –

Row | Structure (SMILES) | melting point | boiling point | further results
43 | O=Cc1ccc(C=O)cc1 | 117 °C | 246 °C | ready biodegradability: readily biodegradable
44 | CN1CCN(C(=O)OC2c3nccnc3C(=O)N2c2ccc(Cl)cn2)CC1 (stereo not drawn) | 178 °C | – | –
45 | O=C(O)c1cc(C(=O)O)c(C(=O)O)cc1C(=O)O | 276 °C | – | –
46 | CC(C)c1ccccc1Cl | -74.4 °C | 191 °C | –
47 | CCOC(=O)c1cccc(Cl)c1 | – | 243 °C | –
48 | Clc1ccccc1C1CO1 (stereo not drawn) | – | – | ready biodegradability: not readily biodegradable
49 | CNC(=O)CSP(=S)(OC)OC | 52 °C | – | log10 Koc (L/kg): 1.2; log10 vapour pressure (mmHg): -4.73; ready biodegradability: not readily biodegradable; log10 BCF: 0.2; log10 biotransformation half-life (days): -1.01
50 | COc1ccc(C(=O)NCc2cccnc2)cc1C(=O)NCc1cccnc1 | 124 °C | – | –
51 | CCN1CCOCC1 | -64 °C | 138 °C | log10 vapour pressure (mmHg): 0.702; ready biodegradability: not readily biodegradable
52 | Cn1cccc1-c1cccnc1 | – | 281 °C | –
53 | O=C(O)[C@@H]1CCc2ccccc2C1 | 97.7 °C | – | –
54 | NC(=O)Nc1ccc(Oc2ccccc2)cc1 | – | – | log10 Koc (L/kg): 2.56
55 | CCOC(=O)c1cccc(C)c1 | – | 234 °C | –
56 | COCCOCCOC | -68 °C | 162 °C | log10 vapour pressure (mmHg): 0.471; ready biodegradability: not readily biodegradable
57 | CCCCCCCCCCCCCCCCCC(=O)OCCOC(=O)CCCCCCCCCCCCCCCCC | 79 °C | – | ready biodegradability: readily biodegradable
58 | CCCCCCCCCCCCCCCCOCC(O)CO (stereo not drawn) | 64 °C | – | –
59 | Cc1c(C)c(C)c(C(=O)O)c(C)c1C | 210 °C | – | –
60 | Clc1ccc(C(Cl)Cl)cc1Cl | – | 257 °C | –
61 | COc1c(Cl)ccc(Cl)c1C(=O)O | 115 °C | – | log10 Koc (L/kg): 1.5; log10 vapour pressure (mmHg): -4.47
62 | CCOC(=O)c1ccccc1 | -34 °C | 212 °C | log10 Koc (L/kg): 2.3; log10 vapour pressure (mmHg): -0.574
63 | COC1=CC(=O)O[C@@H](/C=C/c2ccccc2)C1 | 106 °C | – | –
